One may read the Emax as the greatest response seen or fitted, relative to the assay's reference.

The source of these data is patent US7786141B2 (Vertex Pharmaceuticals Incorporated, priority 2004, dated 2010).

One assay addresses T1, M4 muscarinic receptor (Homo sapiens, UniProt P08173).
T1 construct: expressed in transfected cells; host or cells: CHO (M4-CHO)
T1 sequence (P08173 1-479): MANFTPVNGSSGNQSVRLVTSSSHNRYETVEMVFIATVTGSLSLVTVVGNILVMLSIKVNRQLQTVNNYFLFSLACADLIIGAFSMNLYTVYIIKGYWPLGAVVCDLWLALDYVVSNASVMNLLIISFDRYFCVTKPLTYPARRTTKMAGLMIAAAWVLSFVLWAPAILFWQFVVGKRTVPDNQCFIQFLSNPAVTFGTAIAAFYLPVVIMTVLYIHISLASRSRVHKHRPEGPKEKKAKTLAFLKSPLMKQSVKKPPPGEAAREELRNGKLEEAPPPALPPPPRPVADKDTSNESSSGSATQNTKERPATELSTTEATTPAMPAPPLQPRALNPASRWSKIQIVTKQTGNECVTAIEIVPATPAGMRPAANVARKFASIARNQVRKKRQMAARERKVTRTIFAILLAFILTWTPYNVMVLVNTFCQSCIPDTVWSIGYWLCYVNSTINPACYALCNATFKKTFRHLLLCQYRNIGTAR
Nature of the assay: Functional mobilization of intracellular calcium (FLIPR) in M4-CHO cells. The class given is cell-based. Conditions: Table 4; for Emax: 100% efficacy is the maximum response obtained with the Carbachol control; for M4 Activity: modulating M4 receptor. Put shortly: (§1)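 Two modes: direct compound addition for agonism, or 15 min compound pre-incubation (or co-application) before carbachol at EC80 for inhibition. Calcium signal from Fluo-3 AM or Calcium 3 dye in CHO cells, 1 mM probenecid, pH 7.4, read 60 sec at 488/540 nm; DMSO 0.5% final.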
A general note: Calcium assays in cells follow changes in intracellular calcium, usually with a dye or a luminescent sensor.

A further assay has as its target T2, M1 muscarinic receptor (Homo sapiens, UniProt P11229).
T2 construct: expressed in transfected cells; host or cells: CHO (M1-CHO)
T2 sequence (P11229 1-460): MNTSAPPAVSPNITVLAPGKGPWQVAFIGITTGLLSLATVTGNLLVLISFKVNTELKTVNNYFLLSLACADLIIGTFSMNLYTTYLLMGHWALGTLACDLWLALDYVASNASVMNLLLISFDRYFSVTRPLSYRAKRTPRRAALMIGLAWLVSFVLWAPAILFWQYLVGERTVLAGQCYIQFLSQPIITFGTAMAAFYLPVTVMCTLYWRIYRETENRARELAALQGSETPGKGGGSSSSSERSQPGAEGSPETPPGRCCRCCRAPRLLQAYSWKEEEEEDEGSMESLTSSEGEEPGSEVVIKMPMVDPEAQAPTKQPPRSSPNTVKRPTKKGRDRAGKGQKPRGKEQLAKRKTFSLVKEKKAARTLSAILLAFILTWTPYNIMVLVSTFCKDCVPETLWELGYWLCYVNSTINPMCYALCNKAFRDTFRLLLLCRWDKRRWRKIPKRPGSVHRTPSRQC
Nature of the assay: Functional mobilization of intracellular calcium (FLIPR) in M1-CHO cells. The class given is cell-based. Conditions: Table 4; for Emax: 100% efficacy is the maximum response obtained with the Carbachol control; for M1 Activity: modulating M1 receptor. A digest of the protocol: as §1

In the case of `CC#CCOC(=O)N1CCC(N2CCC3(CC2)CN(C(C)=O)c2cccc(C)c23)CC1` [compound 526], on M4 muscarinic receptor, the maximal response (Emax) was below 25% and the “M4 Activity” value is listed as “x (activity was measured to be greater than 5.0 μM)”. At M1 muscarinic receptor, the Emax lay within 25 to 100% and the “M1 Activity” value is recorded as “xxx (activity was measured to be less than 2.0 μM)”.
On the same counts, the results for `CCCC#CCOC(=O)N1CC[C@@H](CN2CCC3(CC2)CN(C(=O)N(C)C)c2ccc(F)cc23)C1` [compound 527] are 25 to 100%, “xxx (activity was measured to be less than 2.0 μM)”, 25 to 100% and “xxx (activity was measured to be less than 2.0 μM)”.
For `CN(C)C(=O)N1CC2(CCN(C3CCN(c4cncnc4)CC3)CC2)c2cc(F)ccc21` [compound 528], on M4 muscarinic receptor, the Emax was in the range of 25 to 100% and the “M4 Activity” value is recorded as “xxx (activity was measured to be less than 2.0 μM)”. Also, on M1 muscarinic receptor, the maximal response (Emax) lay in the range of 25 to 100%; the “M1 Activity” value was “xx (activity was measured to be between 2.0 μM and 5.0 μM)”.
`CCOC(=O)N1CCC(CN2CCC3(CC2)CN(C(C)=O)c2c(C(F)(F)F)cccc23)CC1` [compound 529]: on M4 muscarinic receptor, the Emax was 25 to 100%; the “M4 Activity” value is “xx (activity was measured to be between 2.0 μM and 5.0 μM)”. At M1 muscarinic receptor, the Emax is 25 to 100% and the “M1 Activity” value is given as “x (activity was measured to be greater than 5.0 μM)”.
With `CC(=O)N[C@H]1CC2(CCN(Cc3ccoc3)CC2)c2ccccc21` [compound 530], at M4 muscarinic receptor, the Emax is below 25% and the “M4 Activity” value is reported as “x (activity was measured to be greater than 5.0 μM)”. Also, on M1 muscarinic receptor, the Emax was below 25% and the “M1 Activity” value was “x (activity was measured to be greater than 5.0 μM)”.
For `CN(C)C(=O)N1CC2(CCN(C3CCN(C(=O)c4cnccn4)CC3)CC2)c2cc(F)ccc21` [compound 531], at M4 muscarinic receptor, the maximum response (Emax) is below 25% and the “M4 Activity” value is “x (activity was measured to be greater than 5.0 μM)”. On M1 muscarinic receptor, the maximal effect (Emax) is below 25% and the “M1 Activity” value is given as “x (activity was measured to be greater than 5.0 μM)”.
Consider `CC(=O)N1CC2(CCN(CC3CCN(C(=O)OC4CCC4)CC3)CC2)c2cc(F)ccc21` [compound 532], for which, at M4 muscarinic receptor, the maximal effect (Emax) was below 25% and the “M4 Activity” value is “x (activity was measured to be greater than 5.0 μM)”. On M1 muscarinic receptor, the Emax is below 25% and the “M1 Activity” value was “x (activity was measured to be greater than 5.0 μM)”.
Regarding `CC(=O)N[C@H]1CC2(CCN(CC(=O)N3CC=CC3)CC2)c2ccccc21` [compound 533], on M4 muscarinic receptor, the Emax was below 25% and the “M4 Activity” value is on record as “x (activity was measured to be greater than 5.0 μM)”. On M1 muscarinic receptor, the Emax was below 25% and the “M1 Activity” value was “x (activity was measured to be greater than 5.0 μM)”.
As for `CN(C)C(=O)N1CC2(CCN(C3CCN(c4ccc(F)cc4)CC3)CC2)c2cc(F)ccc21` [compound 534], at M4 muscarinic receptor, the Emax was below 25% and the “M4 Activity” value is on record as “xxx (activity was measured to be less than 2.0 μM)”. On M1 muscarinic receptor, the maximal response (Emax) fell in the range of 25 to 100%; the “M1 Activity” value is “xx (activity was measured to be between 2.0 μM and 5.0 μM)”.
As to `CN(C)C(=O)N1CC2(CCN(C3CCN(c4cccnc4)CC3)CC2)c2cc(F)ccc21` [compound 535], at M4 muscarinic receptor, the Emax lay within 25 to 100% and the “M4 Activity” value is recorded as “xxx (activity was measured to be less than 2.0 μM)”. On M1 muscarinic receptor, the Emax lay in the range of 25 to 100% and the “M1 Activity” value was “xxx (activity was measured to be less than 2.0 μM)”.
As for `OC1CC2(CCN([C@@H]3C[C@H]4CC[C@@H]3C4)CC2)c2ccccc21` (stereo partly drawn) [compound 536], on M4 muscarinic receptor, the maximal response (Emax) lay within 25 to 100% and the “M4 Activity” value is “xxx (activity was measured to be less than 2.0 μM)”. Moreover, on M1 muscarinic receptor, the Emax was in the range of 25 to 100% and the “M1 Activity” value is “xxx (activity was measured to be less than 2.0 μM)”.
As for `CCOC(=O)N1CCC(N2CCC3(CC[C@H](NC(C)=O)c4ccccc43)CC2)CC1` [compound 537], at M4 muscarinic receptor, the Emax lay within 25 to 100% and the “M4 Activity” value is recorded as “xxx (activity was measured to be less than 2.0 μM)”. In addition, at M1 muscarinic receptor, the Emax lay in the range of 25 to 100% and the “M1 Activity” value is given as “xxx (activity was measured to be less than 2.0 μM)”.
Turning to `CCOC(=O)N1CCC(N2CCC3(C[C@H](NC(C)=O)c4cc(F)ccc43)C2)CC1` (stereo partly drawn) [compound 538], on M4 muscarinic receptor, the maximum response (Emax) is below 25% and the “M4 Activity” value is reported as “x (activity was measured to be greater than 5.0 μM)”. On M1 muscarinic receptor, the maximal effect (Emax) was 25 to 100%; the “M1 Activity” value was “xx (activity was measured to be between 2.0 μM and 5.0 μM)”.
For `COCCOC(=O)N1CCC(N2CCC3(CC2)CN(C(C)=O)c2ccccc23)CC1` [compound 539], on M4 muscarinic receptor, the Emax was 25 to 100%; the “M4 Activity” value was “xx (activity was measured to be between 2.0 μM and 5.0 μM)”. In addition, at M1 muscarinic receptor, the Emax was 25 to 100%; the “M1 Activity” value was “xx (activity was measured to be between 2.0 μM and 5.0 μM)”.
As to `COC(=O)N1CC[C@@H](CN2CCC3(CC2)CN(C(=O)N(C)C)c2ccc(F)cc23)C1` [compound 540], on M4 muscarinic receptor, the Emax fell in the range of 25 to 100% and the “M4 Activity” value is “xxx (activity was measured to be less than 2.0 μM)”. Further, at M1 muscarinic receptor, the maximal effect (Emax) was 25 to 100% and the “M1 Activity” value was “xxx (activity was measured to be less than 2.0 μM)”.
As for `CC(=O)NC1CCC2(CCN(CCC3CCCN(S(C)(=O)=O)C3)CC2)c2ccccc21` (stereo not drawn) [compound 541], on M4 muscarinic receptor, the Emax was below 25% and the “M4 Activity” value is “x (activity was measured to be greater than 5.0 μM)”. For the same compound, on M1 muscarinic receptor, the Emax lay within 25 to 100% and the “M1 Activity” value is listed as “xxx (activity was measured to be less than 2.0 μM)”.
The corresponding values for `O=C(O)C1CC2(CCN(C3CCCC3)CC2)c2ccccc21` (stereo not drawn) [compound 542] are below 25%, “x (activity was measured to be greater than 5.0 μM)”, below 25% and “x (activity was measured to be greater than 5.0 μM)”.
On the same counts, the results for `CCOC(=O)N1CCC(N2CCC3(CC2)CN(C(=O)C2(O)CC2)c2ccc(F)cc23)CC1` [compound 543] are 25 to 100%, “xxx (activity was measured to be less than 2.0 μM)”, above 100% and “xxx (activity was measured to be less than 2.0 μM)”.
For `CN(C)C(=O)N1CC2(CCN(C3CCN(C(=O)CC4CCCC4=O)CC3)CC2)c2cc(F)ccc21` (stereo not drawn) [compound 544], on M4 muscarinic receptor, the Emax was below 25%; the “M4 Activity” value was “xx (activity was measured to be between 2.0 μM and 5.0 μM)”. Moreover, on M1 muscarinic receptor, the maximal response (Emax) was 25 to 100%; the “M1 Activity” value is “xx (activity was measured to be between 2.0 μM and 5.0 μM)”.
Regarding `CC(=O)N1CC2(CCN(C3CCN(c4nc5ccccc5s4)CC3)CC2)c2ccccc21` [compound 545], at M4 muscarinic receptor, the Emax was below 25% and the “M4 Activity” value is “x (activity was measured to be greater than 5.0 μM)”. For the same compound, on M1 muscarinic receptor, the Emax was below 25% and the “M1 Activity” value is “x (activity was measured to be greater than 5.0 μM)”.
In the case of `COc1cc2c(cc1OC)C1(CCN(C3C4CC5CC(C4)CC3C5)CC1)C[C@@H]2NC(C)=O` (stereo partly drawn) [compound 546], at M4 muscarinic receptor, the maximal effect (Emax) lay in the range of 25 to 100% and the “M4 Activity” value is recorded as “x (activity was measured to be greater than 5.0 μM)”. At M1 muscarinic receptor, the maximum response (Emax) was 25 to 100% and the “M1 Activity” value is given as “x (activity was measured to be greater than 5.0 μM)”.
